Assay results: article PMC7002685, “Inhibition of vascular calcification by inositol phosphates derivatized with ethylene glycol oligomers” (Nature Communications, 2020)
Several values for one entry are separate records, joined by “and”; a condition that tells them apart may be missing. Equal values may be shown once.

How the values were obtained:
[1] = target: T1, Protein Tyrosine Kinase, LCK (Homo sapiens, UniProt P06239); assay: Off-target 176020; type: biochemical
T1 construct: purchased Eurofins Panlabs Discovery Services Taiwan, Ltd
Description: (§1) The potential off-target activity of 10 µM (OEG2)2-IP4 was assessed against a panel of 87 enzymes, receptors, or ion channels that are used in standard safety pharmacology screens.
(§2) 3.2. Off-target screening assay
(§3) The experiments were conducted by a contract research organization (Eurofins Panlabs Discovery
(§4) Services Taiwan, Ltd.) and details on the respective assays can be retrieved via the catalog number
(§5) provided in Supplementary Table 11 from the company’s webpage
(§6) (https://www.eurofinsdiscoveryservices.com/). […]

[2] = 18F-NaF micro-PET/CT uptake on calcified human aortic valves ex vivo; type: binding
Description: To investigate (OEG2)2-IP4 interaction with calcified tissues in a clinically relevant context, a competitive binding assay using ^18F-NaF was applied on severely calcified human femoral arteries and native aortic valves ex vivo. […] First, ^18F-NaF uptake was measured on tissue samples treated with vehicle (human serum) and thereafter, using the same tissue samples, treated with (OEG2)2-IP4 in serum.
Triplicate aliquots of CPP2s (20 µg Ca/mL) in 100 μL assay buffer (100 mM HBS, pH 7.4 (RT)) were incubated for 1 h at RT in the presence of increasing concentrations of compounds in 50 μL Milli-Q water and ^18F-NaF (1 nM) in 50 μL assay buffer, resulting in a total incubation volume of 200 μL (^18F-NaF was prepared using a FASTlab synthesizer (GE Healthcare, Little Chalfont, UK) and commercially available ^18F-NaF cassettes (GE Healthcare)). Maximum radiotracer binding was determined by incubating CPP2s with ^18F-NaF (1 nM) only. The reaction was terminated by rapid filtration through a SOLAμ™ SPE plate (HRP 2 mg/mL 96-well plate, 22 μm; Thermo Fisher Scientific). SPE individual column matrices were washed twice rapidly in assay buffer and radioactivity on the filters determined by an automatic gamma counter (Wizard2 Gamma Counter, Perkin Elmer, Waltham, MA, USA). […]

[3] = system: Protein Serine/Threonine Kinase, PKC, Non-selective; assay: Off-target 178010; type: biochemical, Rat; details: 10 µM
Description: as §1, §2
(§7) The experiments were conducted by a contract research organization (Eurofins Panlabs Discovery Services Taiwan, Ltd.) and details on the respective assays can be retrieved via the catalog number provided in Supplementary Table 11 from the company’s webpage
as §6
(§8) At sacrifice the left tibia of animals of the rat model with dietary adenine/high-phosphate-induced uremia and VC was collected, fixed with 70% v/v EtOH and embedded in methyl methacrylate. The trabecular bone compartment is known to be the most metabolic active i.e. actively re-structured bone compartment in CKD. Therefore, histomorphometric and micro-computed tomography (µCT) analysis of bone was performed on the trabecular compartment. Tibial sections were Goldner-stained for histomorphometric analysis of the proximal metaphysis using the AxioVision Release 4.5 software, as […]
(§9) described previously5. […]

Adenosine A1 = target: T2, Adenosine A1 (Homo sapiens, UniProt P30542); assay: Off-target 200510; type: binding
T2 construct: purchased Eurofins Panlabs Discovery Services Taiwan, Ltd
Description: as §1, §2, §3, §4, §5, §6

[4] = system: panel of 87 enzymes, receptors, or ion channels; assay: Off-target panel of 87 enzymes, receptors, or ion channels; type: biochemical; details: 10 µM
Description: as §1, §2, §7, §6, §8, §9

[5] = target: T3, Peptidase, Angiotensin Converting Enzyme (Oryctolagus cuniculus, UniProt P12822); assay: Off-target 107300; type: biochemical, Rabbit
T3 construct: purchased Eurofins Panlabs Discovery Services Taiwan, Ltd
Description: as §1, §2, §3, §4, §5, §6

[6] = target: T4, Transporter, Dopamine (DAT) (Homo sapiens, UniProt Q01959); assay: Off-target 220320; type: binding
T4 construct: purchased Eurofins Panlabs Discovery Services Taiwan, Ltd
Description: as §1, §2, §3, §4, §5, §6

Transporter, Adenosine = assay: Off-target 202000; type: binding, Guinea pig; details: 10 µM
Description: as §1, §2, §3, §4, §5, §6

[7] = target: T5, Serotonin (5-Hydroxytryptamine) 5-HT2C (Homo sapiens, UniProt P28335); assay: Off-target 271800; type: binding
T5 construct: purchased Eurofins Panlabs Discovery Services Taiwan, Ltd
Description: as §1, §2, §7, §6, §8, §9

Progesterone PR-B = target: T6, Progesterone PR-B (Homo sapiens, UniProt P06401); assay: Off-target 299005; type: binding
T6 construct: purchased Eurofins Panlabs Discovery Services Taiwan, Ltd
Description: as §1, §2, §7, §6, §8, §9

[8] = system: GABAA, Chloride Channel, TBOB; assay: Off-target 226810; type: binding, Rat; details: 10 µM
Description: as §1, §2, §3, §4, §5, §6

[9] = Precipitation in culture medium (naked eye, microscope); type: physicochemical; details: 100 µM, VSMC and macrophage assays
Description: Macrophage accumulation and inflammation coincide with the initial phase of calcification. To this end, VSMCs and THP-1-derived macrophages were exposed to CPP2-supplemented medium. CPP2 prepared from human serum as described previously[61] (Supplementary Figs. 6 and 7), induced a pronounced VSMC monolayer calcification after 48 h, which was decreased by (OEG2)2-IP4 in a dose-dependent fashion, and the effect became significant at 10 µM (Fig. 3e). […] Both H2O2 (proxy for oxidative stress) and tumor necrosis factor-alpha (TNF-α) (proxy for inflammatory response) levels were assayed in the VSMC culture supernatants subsequent to CPP2 treatment with and without compounds[30]. However, no increase in H2O2 nor TNF-α compared to control could be detected in either assay. For the CPP-induced VSMC calcification assay (Fig. 3e) a roughly 10-fold higher concentration of (OEG2)2-IP4 was necessary to achieve similar activity as in the CaP-induced VSMC calcification assay (Fig. 3b). […]
Occurrence of precipitation in the different treatment groups was assessed visually by the naked eye and by a microscope (CTR6000, Leica Camera AG) at ×25 magnification at 0 and 24 h (performed once in duplicate).

[10] = uremic rats, 4 h i.v. infusion of 50 mg/kg; cited from earlier work

T5 sequence (P28335 33-458): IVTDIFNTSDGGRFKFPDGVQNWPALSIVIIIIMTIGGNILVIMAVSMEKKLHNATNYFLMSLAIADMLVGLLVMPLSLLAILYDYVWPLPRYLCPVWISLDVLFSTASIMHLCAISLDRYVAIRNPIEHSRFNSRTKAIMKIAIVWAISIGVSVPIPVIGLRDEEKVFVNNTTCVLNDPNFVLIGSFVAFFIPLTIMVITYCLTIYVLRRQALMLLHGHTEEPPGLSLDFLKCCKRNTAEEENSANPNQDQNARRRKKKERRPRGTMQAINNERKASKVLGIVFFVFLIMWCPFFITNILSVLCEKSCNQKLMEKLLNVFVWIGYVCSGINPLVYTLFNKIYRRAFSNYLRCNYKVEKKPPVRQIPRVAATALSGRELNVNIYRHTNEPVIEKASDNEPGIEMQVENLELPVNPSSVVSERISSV
T1 sequence (P06239 whole entry): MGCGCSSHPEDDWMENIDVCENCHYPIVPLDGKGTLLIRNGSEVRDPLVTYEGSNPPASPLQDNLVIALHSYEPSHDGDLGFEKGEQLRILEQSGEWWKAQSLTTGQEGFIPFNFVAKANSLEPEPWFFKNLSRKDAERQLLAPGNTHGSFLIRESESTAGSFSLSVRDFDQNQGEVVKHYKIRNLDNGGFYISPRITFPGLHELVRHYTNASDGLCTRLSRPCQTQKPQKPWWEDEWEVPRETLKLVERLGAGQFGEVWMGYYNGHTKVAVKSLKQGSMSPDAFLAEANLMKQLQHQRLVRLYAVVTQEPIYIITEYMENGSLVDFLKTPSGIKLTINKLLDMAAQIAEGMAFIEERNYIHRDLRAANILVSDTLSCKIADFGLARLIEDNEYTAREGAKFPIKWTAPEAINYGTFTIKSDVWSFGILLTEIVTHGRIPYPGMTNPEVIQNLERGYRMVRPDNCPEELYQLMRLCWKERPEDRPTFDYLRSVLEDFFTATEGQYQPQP
T2 sequence (P30542 whole entry): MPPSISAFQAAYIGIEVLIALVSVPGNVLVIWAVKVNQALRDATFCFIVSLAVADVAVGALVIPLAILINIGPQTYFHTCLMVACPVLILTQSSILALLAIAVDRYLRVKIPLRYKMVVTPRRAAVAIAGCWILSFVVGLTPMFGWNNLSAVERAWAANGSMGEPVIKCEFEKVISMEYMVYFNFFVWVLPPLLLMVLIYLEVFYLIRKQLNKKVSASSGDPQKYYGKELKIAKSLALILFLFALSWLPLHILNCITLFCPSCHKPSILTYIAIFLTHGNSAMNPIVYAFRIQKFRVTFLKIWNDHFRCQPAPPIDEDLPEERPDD
T3 sequence (P12822 34-1310): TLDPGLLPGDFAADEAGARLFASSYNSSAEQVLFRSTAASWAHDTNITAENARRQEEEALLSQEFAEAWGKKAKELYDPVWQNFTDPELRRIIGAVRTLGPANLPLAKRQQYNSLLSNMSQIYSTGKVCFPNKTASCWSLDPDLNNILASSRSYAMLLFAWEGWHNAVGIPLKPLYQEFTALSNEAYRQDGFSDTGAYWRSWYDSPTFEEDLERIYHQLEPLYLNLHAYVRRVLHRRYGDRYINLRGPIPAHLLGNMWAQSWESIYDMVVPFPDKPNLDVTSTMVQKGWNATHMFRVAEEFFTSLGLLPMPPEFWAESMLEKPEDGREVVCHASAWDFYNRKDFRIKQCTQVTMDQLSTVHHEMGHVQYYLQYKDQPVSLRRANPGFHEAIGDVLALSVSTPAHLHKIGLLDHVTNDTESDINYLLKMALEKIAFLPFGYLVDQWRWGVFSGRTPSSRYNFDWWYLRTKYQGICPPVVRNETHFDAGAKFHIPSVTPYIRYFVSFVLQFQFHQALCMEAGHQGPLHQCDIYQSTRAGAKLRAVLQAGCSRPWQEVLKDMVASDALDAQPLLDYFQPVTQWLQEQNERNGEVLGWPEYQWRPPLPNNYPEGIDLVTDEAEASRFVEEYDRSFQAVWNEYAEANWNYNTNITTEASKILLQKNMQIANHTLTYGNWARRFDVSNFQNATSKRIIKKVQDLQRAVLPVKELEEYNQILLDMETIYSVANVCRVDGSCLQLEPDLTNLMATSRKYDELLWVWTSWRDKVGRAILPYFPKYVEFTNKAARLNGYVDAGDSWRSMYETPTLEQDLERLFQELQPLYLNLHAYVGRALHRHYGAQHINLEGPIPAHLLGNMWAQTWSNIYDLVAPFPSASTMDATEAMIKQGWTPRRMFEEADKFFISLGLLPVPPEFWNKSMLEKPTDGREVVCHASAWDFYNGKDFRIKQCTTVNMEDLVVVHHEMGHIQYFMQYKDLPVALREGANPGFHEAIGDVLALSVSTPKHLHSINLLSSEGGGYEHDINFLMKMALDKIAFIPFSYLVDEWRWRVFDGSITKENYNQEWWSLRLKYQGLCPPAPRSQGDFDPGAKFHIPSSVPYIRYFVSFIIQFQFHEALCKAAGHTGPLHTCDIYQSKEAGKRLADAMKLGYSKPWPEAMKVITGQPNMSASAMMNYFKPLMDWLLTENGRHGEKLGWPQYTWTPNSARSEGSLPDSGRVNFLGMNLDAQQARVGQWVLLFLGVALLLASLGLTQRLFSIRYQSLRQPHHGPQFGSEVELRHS
T4 sequence (Q01959 whole entry): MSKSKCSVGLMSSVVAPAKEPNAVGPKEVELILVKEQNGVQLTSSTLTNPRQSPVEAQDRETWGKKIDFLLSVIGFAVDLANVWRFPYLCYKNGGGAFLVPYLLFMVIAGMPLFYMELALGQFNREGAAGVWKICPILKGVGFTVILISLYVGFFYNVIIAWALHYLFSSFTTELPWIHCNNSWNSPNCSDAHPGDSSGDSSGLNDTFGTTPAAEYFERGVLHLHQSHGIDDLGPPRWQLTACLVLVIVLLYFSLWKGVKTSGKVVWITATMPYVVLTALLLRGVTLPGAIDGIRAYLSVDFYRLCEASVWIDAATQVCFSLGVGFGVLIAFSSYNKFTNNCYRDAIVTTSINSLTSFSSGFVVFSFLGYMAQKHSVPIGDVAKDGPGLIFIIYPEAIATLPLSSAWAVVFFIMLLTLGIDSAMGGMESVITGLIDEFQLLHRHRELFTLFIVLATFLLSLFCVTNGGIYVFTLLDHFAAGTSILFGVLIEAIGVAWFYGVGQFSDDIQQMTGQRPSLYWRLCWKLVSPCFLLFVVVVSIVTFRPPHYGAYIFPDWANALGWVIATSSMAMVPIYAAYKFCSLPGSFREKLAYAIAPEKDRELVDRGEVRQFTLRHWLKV
T6 sequence (P06401 whole entry): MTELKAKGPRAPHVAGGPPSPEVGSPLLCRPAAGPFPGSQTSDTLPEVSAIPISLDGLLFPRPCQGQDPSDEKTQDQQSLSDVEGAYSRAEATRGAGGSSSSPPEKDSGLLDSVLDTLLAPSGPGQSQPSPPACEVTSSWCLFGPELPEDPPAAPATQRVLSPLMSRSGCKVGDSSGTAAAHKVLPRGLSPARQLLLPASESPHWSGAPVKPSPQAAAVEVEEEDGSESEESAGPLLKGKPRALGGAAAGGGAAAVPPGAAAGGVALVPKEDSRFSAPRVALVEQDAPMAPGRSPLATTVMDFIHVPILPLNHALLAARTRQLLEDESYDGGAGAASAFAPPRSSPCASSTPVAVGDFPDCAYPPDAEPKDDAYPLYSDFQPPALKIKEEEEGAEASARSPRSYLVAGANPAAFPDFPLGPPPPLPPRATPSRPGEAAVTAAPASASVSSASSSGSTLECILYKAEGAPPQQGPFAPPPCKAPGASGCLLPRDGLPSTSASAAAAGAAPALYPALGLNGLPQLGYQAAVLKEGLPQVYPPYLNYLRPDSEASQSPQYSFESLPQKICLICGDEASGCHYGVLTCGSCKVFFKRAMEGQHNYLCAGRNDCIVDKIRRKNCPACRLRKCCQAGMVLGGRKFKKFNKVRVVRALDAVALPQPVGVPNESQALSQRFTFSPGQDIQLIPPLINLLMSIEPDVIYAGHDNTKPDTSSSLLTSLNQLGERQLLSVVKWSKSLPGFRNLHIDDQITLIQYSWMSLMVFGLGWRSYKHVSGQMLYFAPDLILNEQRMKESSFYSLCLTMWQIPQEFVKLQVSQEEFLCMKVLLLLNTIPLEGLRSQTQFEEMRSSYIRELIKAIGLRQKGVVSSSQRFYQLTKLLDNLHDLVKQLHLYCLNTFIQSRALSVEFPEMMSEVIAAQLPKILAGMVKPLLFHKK

Row | SMILES | inhibition at 10 µM [1] [%] | change of 18F-NaF uptake vs vehicle ([2]; 8.6 μM in human serum) [%] | maximum average 18F binding (18F-NaF-PET) ([2]; IC90 concentration in human serum, individual samples Fig. 3k, unit not given) | % Inhibition [3] [%] | inhibition at 10 µM (Adenosine A1) [%] | off-target activity in 87 biochemical assays [4] | inhibition at 10 µM [5] [%] | inhibition at 10 µM [6] [%] | % Inhibition (Transporter, Adenosine) [%] | inhibition at 10 µM [7] [%] | inhibition at 10 µM (Progesterone PR-B) [%] | % Inhibition [8] [%] | precipitation in culture medium [9] | reduction in serum calcium levels [10] [%]
1 | COCCOCCO[C@@H]1[C@@H](OP(=O)(O)O)[C@H](OCCOCCOC)[C@@H](OP(=O)(O)O)[C@@H](OP(=O)(O)O)[C@H]1OP(=O)(O)O [(OEG2)2-IP4, 4,6-Di-O-(methoxy-diethyleneglycol)-myo-inositol-1,2,3,5-tetrakis(phosphate)] | 4 | −33 | 547.591 and 685.802 and 706.308 | -18 | 4 | did not significantly inhibit or stimulate any | -23 | 19 | -14 | -5 | -4 | -19 | – | –
2 | O=P(O)(O)O[C@H]1[C@H](OP(=O)(O)O)[C@@H](OP(=O)(O)O)[C@H](OP(=O)(O)O)[C@@H](OP(=O)(O)O)[C@H]1OP(=O)(O)O [IP6, myo-Inositol hexakisphosphate] | – | – | – | – | – | – | – | – | – | – | – | – | precipitation in culture medium occurred | 17
